Two molecules from patent US9289411B2, “Anti-HCV agent” (NATIONAL UNIVERSITY CORPORATION OKAYAMA UNIVERSITY, priority 2011, dated 2016) can be followed below.

Structures are written as SMILES.

For data set [1], the system named is ORL8 cells. The data set is described as follows: Cytotoxic effect, WST-1 cell proliferation assay in ORL8 cells. The note with it: ORL8 cells. The source says: (§1) Assay systems using OR6 cells (HCV-O strain), 1B-4R cells (HCV-1B-4 strain), and AH1R cells (HCV-AH1R strain) as HuH-7 cell-derived full-length HCV-RNA-replicating cells, and ORL8 cells (HCV-O strain), ORL11 cells (HCV-O strain), 1B-4RL cells (HCV-1B-4 strain), and KAH5RL cells (HCV-KAH5 strain) as Li23 cell-derived full-length HCV-RNA-replicating cells were used for the quantitative analysis of anti-HCV activity and evaluation of a cytotoxic effect in the present invention. The three cell lines, i.e., the 1B-4R cells, the 1B-4RL cells, and the KAH5RL cells have been disclosed in WO 2010/026965 A1. The AH1R cells may be produced with reference to Mori K et al., BBRC, 371:104-109, 2008 and WO 2010/026965 A1. In addition, all the HCV strains belong to genotype 1b.
(§2) In the measurement of the renilla luciferase activity and the measurement by the WST-1 method, experiments were performed in three wells independent of each other, and their means and standard deviation were calculated.
The cytotoxic effects of N-89 and N-251 were examined using ORL8 cells and the CC50 values were calculated. An experimental scale and schedule are the same as those in Example 1.
N-89 and N-251 were added so as to achieve concentrations of 5 μM, a 2-fold dilution series from 5 μM (2.5, 1.3, 0.63, 0.31, 0.16, and 0.08 μM), and 0. The WST-1 cell proliferation assay was performed 72 hours after the culture.
The cytotoxic effect of artemisinin was examined using OR6 and ORL8 cells and the CC50 values were calculated. An experimental scale and schedule are the same as those in Example 1. Artemisinin was added so as to achieve concentrations of 400 μM, a 2-fold dilution series from 400 μM (200, 100, 50, 25, and 13 μM), and 0. The WST-1 cell proliferation assay was performed 72 hours after the culture.

Data set [2] has as its system HCV-RNA replication in KAH5RL cells (HCV-KAH5 strain, Li23-derived). The data set is described as follows: microbe, parasite or virus in culture. The class given is cell-based, HCV genotype 1b. The note with it: for EC50: Hepatitis C virus, 72 hours, renilla luciferase activity.
Description: N-89 was added so as to achieve concentrations of 10 μM, a 2-fold dilution series from 10 μM (5, 2.5, 1.3, 0.63, 0.31, and 0.16 μM), and 0. The luciferase activities were measured 72 hours after the culture.
N-251 was added so as to achieve concentrations of 5 μM, a 2-fold dilution series from 5 μM (2.5, 1.3, 0.63, 0.31, 0.16, and 0.08 μM), and 0. The luciferase activities were measured 72 hours after the culture.
For data set [3], the system named is HCV-RNA replication in ORL8 cells. The data set is described as follows: Effect of antioxidant vitamin E on anti-HCV activity in ORL8 cells (luciferase activity). The class given is cell-based, HCV genotype 1b. The note with it: for luciferase activity, compound in combination with vitamin E: compound 0.5 μM + vitamin E 10 μM; for luciferase activity, compound in combination with vitamin E / luciferase activity (HCV activity), compound alone: 72 hours; for luciferase activity (HCV activity), compound alone: compound 0.5 μM alone; for canceling of the anti-HCV activity by vitamin E: vitamin E 10 μM. The method, then:
The effect of addition of vitamin E on the anti-HCV activity of N-89 was examined using ORL8 cells. An experimental scale and schedule are the same as those in Example 1.
N-89 and vitamin E were simultaneously added so that the concentrations of N-89 and vitamin E were set to 0.5 μM and 10 μM, respectively. The luciferase activity was measured 72 hours after the culture.
The effect of addition of vitamin E on the anti-HCV activity of N-251 was examined using ORL8 cells. An experimental scale and schedule are the same as those in Example 1.
N-251 and vitamin E were simultaneously added so that the concentrations of N-251 and vitamin E were set to 0.5 μM and 10 μM, respectively. The luciferase activity was measured 72 hours after the culture.
The effect of addition of vitamin E on the anti-HCV activity of artemisinin was examined using ORL8 cells. An experimental scale and schedule are the same as those in Example 1.
Artemisinin and vitamin E were simultaneously added so that the concentrations of artemisinin and vitamin E were set to 100 μM and 10 μM, respectively. The luciferase activity was measured 72 hours after the culture.

The subject of data set [4] is HCV-RNA replication in 1B-4R cells (HCV-1B-4 strain, HuH-7-derived). Put plainly: microbe, parasite or virus in culture. The format is cell-based, HCV genotype 1b. The note with it: for EC50: Hepatitis C virus, 72 hours, renilla luciferase activity.
Description: Assay systems using OR6 cells (HCV-O strain), 1B-4R cells (HCV-1B-4 strain), and AH1R cells (HCV-AH1R strain) as HuH-7 cell-derived full-length HCV-RNA-replicating cells, and ORL8 cells (HCV-O strain), ORL11 cells (HCV-O strain), 1B-4RL cells (HCV-1B-4 strain), and KAH5RL cells (HCV-KAH5 strain) as Li23 cell-derived full-length HCV-RNA-replicating cells were used for the quantitative analysis of anti-HCV activity and evaluation of a cytotoxic effect in the present invention. […] In addition, all the HCV strains belong to genotype 1b.
For data set [5], the system named is HCV-RNA replication in 1B-4RL cells (HCV-1B-4 strain, Li23-derived). The data set is described as follows: microbe, parasite or virus in culture. The note with it: for EC50: Hepatitis C virus, 72 hours, renilla luciferase activity. The format is cell-based, HCV genotype 1b. As for the experimental part:
For N-251, the results at concentrations of up to 1.3 μM are shown.

Data set [6] deals with renilla luciferase. The data set is described as follows: Influence on renilla luciferase activity in lysate of OR6 cells. The format is biochemical. The settings on record: OR6 cell lysate, concentrations of up to 20 μM. As for the experimental part: Thus, N-89 or N-251 was added (5 μL) to a lysate (10 μL) of the ORL8 cells (1×10^5 cells, medium for Li23 cell line) so as to achieve final concentrations of 0, 5, 10, and 20 μM, and 50 μL of a substrate were further added thereto. Then, the luciferase activity was measured.
Also in OR6 cells (medium for HuH-7 cell line), the renilla luciferase activity was measured by the same technique as in Example 6.
An actual luciferase activity value (RL activity value) at 100% on the ordinate axis was 1.1×10^6 in both of N-89 and N-251.

The subject of data set [7] is HCV-RNA replication in OR6, 1B-4R, AH1R, ORL8, ORL11, 1B-4RL and KAH5RL cells. The data set is described as follows: Anti-HCV activity summarized over cells derived from various HCV strains (reporter assays). The format is cell-based, HCV genotype 1b. The note with it: Hepatitis C virus, seven full-length HCV-RNA-replicating cell lines, read-out: EC50 values, range over all cells. (Reporter assays use an easily measured gene product as a stand-in for the process of interest.)

Data set [8] concerns HCV-RNA replication in OR6 cells (HCV-O strain, HuH-7-derived). Put plainly: microbe, parasite or virus in culture. The settings on record: for EC50: Hepatitis C virus, OR6, 72 h; for SI (CC50/EC50): OR6 cells.
Description: as §1
As necessary, an increase or decrease in expression level of an HCV protein (core protein) was examined by a Western blot method.
as §2
OR6 cells, which had been cultured in general medium for subculture, were plated onto a 24-well plate (2×10^4 cells in 1 mL of medium for […] cell line per well) and cultured. After 24 hours, N-89 was added so as to achieve concentrations of 20 μM, a 2-fold dilution series from 20 μM (10, 5, 2.5, 1.3, 0.63, and 0.31 μM), and 0, or N-251 was added so as to achieve concentrations of 10 μM, a 2-fold dilution series from 10 μM (5, 2.5, 1.3, 0.63, 0.31, and 0.16 μM), and 0. The renilla luciferase activities were measured 72 hours after the culture. N-89 and N-251 were diluted with DMSO.
The anti-HCV activity of artemisinin was examined using OR6 cells and ORL8 cells and the EC50 values were calculated. An experimental scale and schedule are the same as those in Example 1.
Artemisinin was added so as to achieve concentrations of 100 μM, a 2-fold dilution series from 100 μM (50, 25, 13, 6.3, 3.1, and 1.6 μM), and 0. The luciferase activities were measured 72 hours after the culture.

A word on the CC50: it is the concentration giving 50% cytotoxicity. A low value points to greater toxicity to the cells. A word on the EC50: it is the concentration that produces a half-maximal response. Take `OCCCCCCC1COOC2(CCCCCCCCCCC2)OOC1` [N-251, 6-(1,2,6,7-tetraoxaspiro[7,11]nonadec-4-yl)]: the “cytotoxicity at 1 μM (WST-1 assay)” value in data set [1] is on record as “not exhibiting cytotoxicity”. In data set [1] (72 hours, WST-1), this molecule showed a CC50 of 1300 nM. Moreover, the “SI (CC50/EC50)” value in data set [2] came out at 11; in data set [4], 3.9; in data set [5] it was 8.3; in data set [8], 4.4. Moreover, the EC50 was 290 nM in data set [2]; 980 nM in data set [4]; 230 nM in data set [5]; 59 to 980 nM in data set [7]; 690 nM in data set [8]. In data set [3], the “luciferase activity, compound in combination with vitamin E” value was found to be 215%. In data set [3], the “luciferase activity (HCV activity), compound alone” value is given as 33%. In data set [3], the “canceling of the anti-HCV activity by vitamin E” value is “completely canceled”. The “inhibition on the renilla luciferase activity” value in data set [6] is on record as “did not show any inhibition”.

`C1CCCCCC2(CCCCC1)OOCCCOO2` [N-89, 1,2,6,7-tetraoxaspiro[7,11]nonadecane]: the “cytotoxicity at 1 μM (WST-1 assay)” value in data set [1] is reported as “not exhibiting cytotoxicity”. Besides, the “SI (CC50/EC50)” value in data set [2] was determined as 13; in data set [4], 22; in data set [5] it was 20; in data set [8], 14. In addition, the EC50 was 190 nM in data set [2]; 420 nM in data set [4]; 120 nM in data set [5]; 25 to 660 nM in data set [7]; 660 nM in data set [8]. For the same molecule, the “luciferase activity, compound in combination with vitamin E” value in data set [3] was found to be 245%. Moreover, the “luciferase activity (HCV activity), compound alone” value in data set [3] was 27%. Also, the “canceling of the anti-HCV activity by vitamin E” value in data set [3] is given as “completely canceled”. In data set [6], the “inhibition on the renilla luciferase activity” value is “did not show any inhibition”.
